Source: patent publication US11229624B2, “FABP4 as a therapeutic target in skin diseases” (TICURE LTD., priority 2016, dated 2022)

System: IMQ-induced psoriasis in mice
Experiment: Imiquimod-induced psoriasis model in mice, PASI scoring of back skin inflammation
Type: in vivo, Balb/c mice
Source text: As already explained, psoriasis is a chronic inflammatory skin disorder. It occurs when the immune system mistakes the skin cells as a pathogen, and sends out faulty signals that speed up the proliferation of skin cells. Imiquimod (IMQ) is a potent immune activator that induces and exacerbates psoriasis when applied topically. Daily application of IMQ on mouse back skin induces inflamed scaly skin lesions resembling plaque type psoriasis. IMQ-induced psoriasis in mice has been long used as a model for human psoriasis.
The efficacy of oral administration of a FABP4-inhibitor to treat psoriasis in the IMQ-induced model in mice was tested.
The test was carried out using Balb/c mice (Envigo RMS (Israel) Ltd), average (±SD) body weight at study initiation was 18.2±0.81 g. Animals were fed ad libitum a commercial rodent diet (Teklad Certified Global 18% Protein Diet, Harlan cat #2018SC). Animals had free access to sterilized and acidified drinking water (pH between 2.5 and 3.5).
The tests included six groups of 3-10 mice per group, as follows: • one naïve (no IMQ) group; • one Vehicle control group, the vehicle formulation being 10% 1-methyl-2-pyrrolidone and 5% Cremophor EL in water for injection (WFI); • one treated group that received Cortisone acetate as a positive control—one tablet (25 mg each, Rekah Pharm) was triturated with a mortar. The powder was dissolved in 2.5 ml WFI yielding 10 mg/ml. The compound was administrated per-os at 12.5 mg/kg BW (body weight) mouse of the compound once daily for six days starting the first day of IMQ application (Day 1); and • three treated groups that received BMS (i.e. Test Item) at three doses—5, 15 and 30 mg/kg. BMS powder (Cayman Chemical) was dissolved in ethanol to create a 30 mg/ml solution. This stock solution was diluted in the Vehicle to create three different concentrations 0.5, 1.5 and 3 mg/ml. A new aqueous solution was prepared in each day. BMS was administrated per-os once daily for six days starting the first day of IMQ application (Day 1).
IMQ-induction: A daily topical dose of 62.5 mg of commercially available IMQ cream (5%) (Aldara; 3M Pharmaceuticals) was applied to animals from all the groups except for the naïve group on the shaved back for six consecutive days, translated to a daily dose of 3.125 mg of the active compound.
Experiment conditions: All animals except for the naïve group received IMQ cream (Aldara™ 5% cream, #3 Pharmaceuticals) applied on the back skin daily for six consecutive days starting on Day 1 (˜60 mg/mouse). The Test Item, Vehicle and Cortisone acetate were administered per-os daily for 6 days. During the study morbidity and mortality, body weight (BW), clinical signs, and Psoriasis Area and Severity Index (PASI) scoring were performed and representative pictures were taken. The animals were sacrificed on Day 9.
Scoring was performed by a trained observer in a “blinded” way, i.e., being unaware of the treatment. To score the severity of inflammation of the back skin, the clinical PASI scoring was employed. Erythema, scaling, and thickening were scored independently on a scale from 0 to 4: 0, none; 1, slight; 2, moderate; 3, marked; 4, very marked. The cumulative score (erythema plus scaling plus thickening), PASI scoring, served as a measure of the severity of inflammation (scale 0-12).

[1] = 15 mg/kg per-os once daily for six days
[2] = BMS treated groups (5, 15 and 30 mg/kg per-os), Day 7

CCc1c(-c2ccccc2)c(-c2ccccc2)nn1-c1ccccc1-c1cccc(OCC(=O)O)c1 [BMS, 2-[[2′-(5-ethyl-3,4-diphenyl-1H-pyrazol-1-yl)[1,1′-biphenyl]-3-yl]oxy]-acetic acid]
erythema severity score, comparison of doses [1]: best results | scaling severity score, comparison of doses [1]: best results | skin thickness severity score, comparison of doses [1]: best results | severity of skin inflammation (PASI scoring) (BMS treated groups (5, 15 and 30 mg/kg per-os once daily for six days), Day 7): significant amelioration | erythema severity score [2]: significant amelioration | scaling severity score [2]: significant amelioration | skin thickness severity score [2]: significant amelioration | impact on the inflammation severity, comparison of doses (middle dose 15 mg/kg per-os once daily for six days): highest impact
